Test results as given in the NIST ThermoML archive (doi:10.1016/j.jct.2012.12.001).

Assay: heat capacity at constant pressure per volume; xn = mol fraction of the nth substance listed
Details: 101 kPa, Liquid, DSC, x2 = 0.713

CCCCCCCCCCCCCCCCCC [octadecane] + N#Cc1ccccc1
Details	heat capacity [J/K/m3]
307.43 K	1934400
307.46 K	1934700
307.49 K	1935300
307.51 K	1940700
307.54 K	1937500
307.57 K	1936300
307.6 K	1936200
307.63 K	1932400
307.66 K	1937300
307.68 K	1942100
307.71 K	1944000
307.74 K	1939900
307.77 K	1932400
307.8 K	1938300
307.82 K	1947000
307.85 K	1949300
307.88 K	1946700
307.91 K	1938400
307.94 K	1933900
307.96 K	1951300
307.99 K	1961700
308.02 K	1944900
308.05 K	1926900
308.08 K	1941200
308.11 K	1958000
308.13 K	1970100
308.16 K	1961600
308.19 K	1937100
308.22 K	1930400
308.25 K	1946700
308.27 K	1964400
308.3 K	1971900
308.33 K	1970700
308.36 K	1959500
308.39 K	1936500
308.42 K	1912300
308.44 K	1924300
308.47 K	1951900
308.5 K	2008600
308.53 K	2043600
308.56 K	2018100
308.58 K	1941300
308.61 K	1912700
308.64 K	1927600
308.67 K	1961900
308.7 K	1999600
308.72 K	2029400
308.75 K	2032700
308.78 K	1994600
308.81 K	1952000
308.84 K	1951000
308.87 K	1967200
308.89 K	1986400
308.92 K	2016500
308.95 K	2025600
308.98 K	1992600
309 K	1977300
309.03 K	1975500
309.06 K	1984100
309.09 K	2003300
309.12 K	2020100
309.15 K	2018700
309.17 K	2001300
309.2 K	1997100
309.23 K	1999200
309.26 K	2022000
309.29 K	2056100
309.31 K	2064600
309.34 K	2035200
309.37 K	2025000
309.4 K	2039600
309.43 K	2070400
309.45 K	2095200
309.48 K	2108700
309.51 K	2150900
309.54 K	2201100
309.57 K	1939300
309.6 K	1869500
309.62 K	1848200
309.65 K	1833800
309.68 K	1826700
309.71 K	1819300
309.74 K	1817500
309.76 K	1810200
309.79 K	1806800
309.82 K	1803600
309.85 K	1800700
309.88 K	1798700
309.9 K	1794300
309.93 K	1792100
309.96 K	1792800
309.99 K	1790300
310.02 K	1787500
310.05 K	1785800
310.07 K	1787100
310.1 K	1782100
310.13 K	1784300
310.16 K	1779800
310.19 K	1779800
310.21 K	1778600
310.24 K	1778600
310.27 K	1775500
310.3 K	1773400
310.33 K	1772700
310.35 K	1774100
310.38 K	1771100
310.41 K	1773500
310.44 K	1771400
310.47 K	1770500
310.5 K	1768500
310.52 K	1769800
310.55 K	1768900
310.58 K	1766300
310.61 K	1764600
310.64 K	1764400
310.66 K	1764600
310.69 K	1763300
310.72 K	1763400
310.75 K	1765000
310.78 K	1762800
310.8 K	1762200
310.83 K	1757300
310.86 K	1761100
310.89 K	1760100
310.92 K	1760700
310.94 K	1761100
310.97 K	1760600
311 K	1759800
311.03 K	1759800
311.06 K	1758100
311.09 K	1757600
311.11 K	1758300
311.14 K	1758800
311.17 K	1757800
311.2 K	1757900
311.23 K	1756900
311.25 K	1754900
311.28 K	1754400
